The target of one test is T1, E. coli CsgA (Escherichia coli, UniProt P28307).
T1 construct: made in house; host or cells: E. coli NEB 3016 slyD::kan, pET11d
Description: In vitro ThioflavinT assay of CsgA aggregation (CsgA ThT Assay). It is filed as biochemical. The essentials:
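Purified C-terminal His-tagged CsgA, monomerised by desalting and 30-kDa filtration, at 2-20 μM with 20-40 μM ThT in 50 mM potassium phosphate pH 7.3, 1% DMSO, compounds 3.125-200 uM; room temperature, fluorescence (ex 438/em 495 nm) read every 15 min. Background-subtracted signal expressed as percent inhibition versus vehicle at 6-6.5 or 8-9 h, or as percent control AUC.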

Test [1] relates to CsgA gene expression (csgBAC promoter-GFP reporter) in E. coli UTI89. Description: In vitro live cell fluorescent reporter assay of CsgA transcription (Reporter Assay). Type of test: cell-based. The essentials:
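Chromosomal single-copy csgBAC promoter–GFP reporter in E. coli UTI89, started at OD600 0.003 in YESCA broth with compound (0.14–100 μM, 1% DMSO), 20 h at 27 °C. GFP (ex 485/em 525 nm) background-subtracted and normalized to vehicle; IC50 and X[50] from curve fits. OD600 tracked growth effects.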
Background: Reporter assays use an easily measured gene product as a stand-in for the process of interest.

[2] abbreviates: read-out: CsgA ThT Assay (10 μM CsgA) % Control AUC at 1005 minutes, 25 μM (activity range), CsgA 10 μM, black plates, compound 25 μM, 1005 minutes, class symbol.
Where [3] appears, read: read-out: CsgA ThT Assay (10 μM CsgA) % Control AUC at 1005 minutes, 25 μM, mean AUC as % of DMSO control, CsgA 10 μM, black plates, compound 25 μM, 1005 minutes.
Where [4] appears, read: read-out: CsgA ThT Assay (10 μM CsgA) % Control AUC at 1005 minutes, 100 μM (activity range), CsgA 10 μM, black plates, compound 100 μM, 1005 minutes, class symbol.
Where [5] appears, read: read-out: CsgA ThT Assay (10 μM CsgA) % Control AUC at 1005 minutes, 100 μM, mean AUC as % of DMSO control, CsgA 10 μM, black plates, compound 100 μM, 1005 minutes.
The mark [6] stands for this setting: Escherichia coli, read-out: Reporter Assay Abs IC50 (activity range), median Abs IC50 in the CsgA reporter assay, class symbol.
The mark [7] stands for this setting: Escherichia coli, read-out: Reporter Assay Abs IC50 (μM), median Abs IC50 in the CsgA reporter assay, N/A = maximum expression reduction is <50% of control.
Where [8] appears, read: read-out: CsgA ThT Assay (2 μM CsgA) % Control Bmax 25 μM, activity range, class symbol, CsgA 2 μM, white plates, compound 25 μM.
Where [9] appears, read: read-out: CsgA ThT Assay (2 μM CsgA) % Control Bmax 25 μM, mean Bmax as percentage of DMSO control, CsgA 2 μM, white plates, compound 25 μM.
The mark [10] stands for this setting: read-out: CsgA ThT Assay (2 μM CsgA) % Control Bmax 100 μM, activity range, class symbol, CsgA 2 μM, white plates, compound 100 μM.
[11] abbreviates: read-out: CsgA ThT Assay (2 μM CsgA) % Control Bmax 100 μM, mean Bmax as percentage of DMSO control, CsgA 2 μM, white plates, compound 100 μM.
Where [12] appears, read: Escherichia coli, read-out: Reporter Assay Abs IC50, activity range, class symbol.

One may read the IC50 as the midpoint of a concentration-inhibition curve.

Where two headings read alike, the source gives them in different places. Where only a bound is given, the exact number is not on record here.

T1 sequence (P28307 23-151): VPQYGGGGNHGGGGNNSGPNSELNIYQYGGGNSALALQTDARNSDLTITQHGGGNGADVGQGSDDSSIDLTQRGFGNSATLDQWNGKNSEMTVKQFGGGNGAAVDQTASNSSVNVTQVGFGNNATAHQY

For `CN1CC(C(=O)O)n2c(c(-c3cccc(C(F)(F)F)c3)c(Cc3cccc4ccccc34)c(Br)c2=O)S1(=O)=O` (stereo not drawn) [Compound 058, 7-bromo-2-methyl-8-(naphthalen-1-ylmethyl)-6-oxo-9-(3-(trifluoromethyl)phenyl)-3,4-dihydro-2H,6H-pyrido[1,2-e][1,2,5]thiadiazine-4-carboxylic acid 1,1-dioxide], the remaining activity at 25 µM at E. coli CsgA (setting [2]) was 31 to 60%; on E. coli CsgA (setting [3]) it was 47%. The values for the remaining activity at 100 µM at E. coli CsgA (setting [4]) and at E. coli CsgA (setting [5]) were 11 to 31% and 22%, respectively. Moreover, the IC50 in test [1] (setting [6]) was greater than 10 µM; in test [1] (setting [7]), 19.8 µM.

Turning to `CCCN1CC(C(=O)O)n2c(c(-c3cccc(C(F)(F)F)c3)c(Cc3cccc4ccccc34)c(NCC3CCCC3)c2=O)S1(=O)=O` (stereo not drawn) [Compound 128, 7-((cyclopentylmethyl)amino)-8-(naphthalen-1-ylmethyl)-6-oxo-2-propyl-9-(3-(trifluoromethyl)phenyl)-3,4-dihydro-2H,6H-pyrido[1,2-e][1,2,5]thiadiazine-4-carboxylic acid 1,1-dioxide], the remaining activity at 25 µM on E. coli CsgA (setting [2]) is 11 to 31%; on E. coli CsgA (setting [3]) it was 29%. Further, the remaining activity at 100 µM was 11 to 31% on E. coli CsgA (setting [4]) and 28% on E. coli CsgA (setting [5]). Also, the IC50 is 1.3 to 4.5 µM in test [1] (setting [6]) and 2.2 µM in test [1] (setting [7]).

Turning to `O=C(O)C1CS(=O)(=O)c2c(-c3cccc(C(F)(F)F)c3)c(C(F)(F)c3cccc4ccccc34)cc(=O)n21` (stereo not drawn) [Compound 081, 7-(difluoro(naphthalen-1-yl)methyl)-5-oxo-8-(3-(trifluoromethyl)phenyl)-2,3-dihydro-5H-thiazolo[3,2-a]pyridine-3-carboxylic acid 1,1-dioxide], the figures for the remaining activity at 25 µM at E. coli CsgA (setting [2]) and on E. coli CsgA (setting [3]) were 11 to 31% and 25%, respectively. For the same molecule, the results for the remaining activity at 100 µM at E. coli CsgA (setting [4]) and on E. coli CsgA (setting [5]) were 11 to 31% and 24%, respectively. The IC50 in test [1] (setting [6]) was greater than 10 µM; in test [1] (setting [7]) it was 16.5 µM.

Take `CCN1CC(C(=O)O)n2c(c(-c3cccc(C(F)(F)F)c3)c(Cc3cccc4ccccc34)cc2=O)S1(=O)=O` (single isomer, unassigned) [Compound 015b, 2-ethyl-8-(naphthalen-1-ylmethyl)-6-oxo-9-(3-(trifluoromethyl)phenyl)-3,4-dihydro-2H,6H-pyrido[1,2-e][1,2,5]thiadiazine-4-carboxylic acid 1,1-dioxide]: the “CsgA ThT Assay (10 μM CsgA) % Control AUC at 1005 minutes, 25 μM (activity range)” value at E. coli CsgA (CsgA 10 μM, black plates, compound 25 μM, 1005 minutes, class symbol) is “(+++) (% control AUC of 11 to 31%)”. Further, the “CsgA ThT Assay (10 μM CsgA) % Control AUC at 1005 minutes, 100 μM (activity range)” value on E. coli CsgA (CsgA 10 μM, black plates, compound 100 μM, 1005 minutes, class symbol) is listed as “(+++) (% control AUC of 11 to 31%)”. In addition, at E. coli CsgA (mean AUC as % of DMSO control, CsgA 10 μM, black plates, compound 25 μM, 1005 minutes), the “CsgA ThT Assay (10 μM CsgA) % Control AUC at 1005 minutes, 25 μM” value was found to be 29%. For the same molecule, on E. coli CsgA (mean AUC as % of DMSO control, CsgA 10 μM, black plates, compound 100 μM, 1005 minutes), the “CsgA ThT Assay (10 μM CsgA) % Control AUC at 1005 minutes, 100 μM” value was 23%. In addition, the IC50 was greater than 10 µM in test [1] (read-out: Reporter Assay Abs IC50 (activity range), median Abs IC50 in the CsgA reporter assay, class symbol) and 22.5 µM in test [1] (read-out: Reporter Assay Abs IC50, median Abs IC50 in the CsgA reporter assay, N/A = maximum expression reduction is <50% of control).

With `O=C(O)C1CN(CCCCO)S(=O)(=O)c2c(-c3cccc(C(F)(F)F)c3)c(Cc3cccc4ccccc34)cc(=O)n21` (stereo not drawn) [Compound 085, 2-(4-hydroxybutyl)-8-(naphthalen-1-ylmethyl)-6-oxo-9-(3-(trifluoromethyl)phenyl)-3,4-dihydro-2H,6H-pyrido[1,2-e][1,2,5]thiadiazine-4-carboxylic acid 1,1-dioxide], the remaining activity at 25 µM at E. coli CsgA (setting [2]) was 31 to 60%; at E. coli CsgA (setting [3]), 52%. In addition, the remaining activity at 100 µM at E. coli CsgA (setting [4]) is 11 to 31%; at E. coli CsgA (setting [5]) it was 18%. Further, the half-maximal inhibitory concentration (IC50) in test [1] (setting [6]) was greater than 10 µM; in test [1] (setting [7]), 15.3 µM.

Consider `O=C(O)C1CN(Cc2ccccc2)c2c(-c3cccc(C(F)(F)F)c3)c(Cc3cccc4cnccc34)c(Cl)c(=O)n21` (stereo not drawn) [Compound 212, 1-benzyl-6-chloro-7-(isoquinolin-5-ylmethyl)-5-oxo-8-(3-(trifluoromethyl)phenyl)-1,2,3,5-tetrahydroimidazo[1,2-a]pyridine-3-carboxylic acid], for which the remaining activity at 25 µM on E. coli CsgA (setting [8]) is greater than 60%; on E. coli CsgA (setting [9]) it was 64%. The remaining activity at 100 µM was 31 to 60% on E. coli CsgA (setting [10]) and 56% at E. coli CsgA (setting [11]). Moreover, the IC50 in test [1] (setting [7]) was 13 µM; in test [1] (setting [12]) it was greater than 10 µM.

Regarding `CN1CC(C(=O)O)n2c1c(-c1cccc(C(F)(F)F)c1)c(C(F)(F)c1cccc3ccccc13)cc2=O` (stereo not drawn) [Compound 135, 7-(difluoro(naphthalen-1-yl)methyl)-1-methyl-5-oxo-8-(3-(trifluoromethyl)phenyl)-1,2,3,5-tetrahydroimidazo[1,2-a]pyridine-3-carboxylic acid], the results for the remaining activity at 25 µM on E. coli CsgA (setting [8]) and on E. coli CsgA (setting [9]) were greater than 60% and 88%, respectively. The results for the remaining activity at 100 µM at E. coli CsgA (setting [10]) and at E. coli CsgA (setting [11]) were greater than 60% and 67%, respectively. The IC50 in test [1] (setting [7]) was 4 µM; in test [1] (setting [12]), 1.3 to 4.5 µM.

On to `CN1CC(C(=O)O)n2c(c(-c3cccc(C(F)(F)F)c3)c(Cc3cccc4ccccc34)c(N3CCOCC3)c2=O)S1(=O)=O` (stereo not drawn) [Compound 079, 2-methyl-7-morpholino-8-(naphthalen-1-ylmethyl)-6-oxo-9-(3-(trifluoromethyl)phenyl)-3,4-dihydro-2H,6H-pyrido[1,2-e][1,2,5]thiadiazine-4-carboxylic acid 1,1-dioxide], for which the results for the remaining activity at 25 µM at E. coli CsgA (setting [2]) and on E. coli CsgA (setting [3]) were 31 to 60% and 40%, respectively. The remaining activity at 100 µM is 11 to 31% on E. coli CsgA (setting [4]) and 14% at E. coli CsgA (setting [5]). In addition, the IC50 in test [1] (setting [6]) is greater than 10 µM; in test [1] (setting [7]) it was 10.7 µM.

As to `O=C(O)C1CN(C2CCCC2)S(=O)(=O)c2c(-c3cccc(C(F)(F)F)c3)c(Cc3cccc4ccccc34)c(NC3CCCC3)c(=O)n21` (stereo not drawn) [Compound 150, 2-cyclopentyl-7-(cyclopentylamino)-8-(naphthalen-1-ylmethyl)-6-oxo-9-(3-(trifluoromethyl)phenyl)-3,4-dihydro-2H,6H-pyrido[1,2-e][1,2,5]thiadiazine-4-carboxylic acid 1,1-dioxide], the figures for the remaining activity at 25 µM on E. coli CsgA (setting [8]) and on E. coli CsgA (setting [9]) were greater than 60% and 78%, respectively. In addition, the remaining activity at 100 µM at E. coli CsgA (setting [10]) was greater than 60%; at E. coli CsgA (setting [11]), 199%. The results for the IC50 in test [1] (setting [7]) and in test [1] (setting [12]) were 4.2 µM and 1.3 to 4.5 µM, respectively.

With `Nc1c(Cc2cccc3ccccc23)c(-c2cccc(C(F)(F)F)c2)c2n(c1=O)C(C(=O)O)CN(CCCCO)S2(=O)=O` (stereo not drawn) [Compound 099, 7-amino-2-(4-hydroxybutyl)-8-(naphthalen-1-ylmethyl)-6-oxo-9-(3-(trifluoromethyl)phenyl)-3,4-dihydro-2H,6H-pyrido[1,2-e][1,2,5]thiadiazine-4-carboxylic acid 1,1-dioxide], the remaining activity at 25 µM was 31 to 60% at E. coli CsgA (setting [2]) and 56% on E. coli CsgA (setting [3]). In addition, the remaining activity at 100 µM on E. coli CsgA (setting [4]) was 31 to 60%; at E. coli CsgA (setting [5]), 44%. Also, the IC50 in test [1] (setting [6]) was greater than 10 µM; in test [1] (setting [7]), 17.6 µM.

As for `O=C(O)C1CN(CCO)S(=O)(=O)c2c(-c3cccc(C(F)(F)F)c3)c(Cc3cccc4ccccc34)cc(=O)n21` (stereo not drawn) [Compound 084, 2-(2-hydroxyethyl)-8-(naphthalen-1-ylmethyl)-6-oxo-9-(3-(trifluoromethyl)phenyl)-3,4-dihydro-2H,6H-pyrido[1,2-e][1,2,5]thiadiazine-4-carboxylic acid 1,1-dioxide], the remaining activity at 25 µM at E. coli CsgA (setting [2]) was 31 to 60%; on E. coli CsgA (setting [3]), 57%. Further, the values for the remaining activity at 100 µM on E. coli CsgA (setting [4]) and at E. coli CsgA (setting [5]) were 11 to 31% and 19%, respectively. For the same molecule, the 50% inhibitory concentration (IC50) in test [1] (setting [6]) is greater than 10 µM; in test [1] (setting [7]), 27 µM.
